Assay results reported in US20150328245A1, “Agents for Eliminating Tumour-Initiating Cells” (priority 2012, published 2015).

Key:
Assay type in all cases: cell-based
cancer cell lines = assay: In vitro colorimetric cell death assay (MTT), overall statement
Description: (§1) It's an in vitro colorimetric assay for assessing cell viability where the cells are grown in Two-dimensional surface.
(§2) An exemplary procedure for the assay follows. Cancer cells and normal cells were plated in a 96 well plate as per predetermined plating efficiency. The plate was incubated for 24 hours in a 5% CO2 atmosphere at 37 degrees Celsius, a range of concentrations of the compounds I-1, I-2 and I-3 as well as cisplatin (known chemotherapeutic agents) were added to the separate wells, the plate was incubated further for 48 hours in a 5% CO2 atmosphere, the plate was centrifuged twice at 3000 rpm for 3 minutes, the supernatant fluid was discarded, 100 uL of 0.5 mg/mL MTT solution was added and the plate was incubated for 4 hours in a 5% CO2 atmosphere at 37 degrees Celsius. The plate was then centrifuged twice at 3000 rpm for 3 minutes, supernatant, was aspirated very carefully, 200 uL DMSO was added to each well to solubilize MTT crystals and mixed well by shaking the plate, the plate was incubated for 10 minutes in a 5% CO2 atmosphere at 37 degrees Celsius, the plate placed on the shaker of an ELISA plate reader and the absorbance at 570 nm was measured, then the percentage of viable cells remaining was calculated by first subtracting the background absorbance then comparing to the absorbance of a non-drug-treated cell sample, and the results were plotted on a graph to determine the IC50 for the compounds and cisplatin.

MCF-7 [1] = assay: In vitro colorimetric cell death assay (MTT); details: Homo sapiens, MCF7; MCF-7, MTT, 48 hours
Description: as §1, §2

[2] = test system: MCF10A (normal breast cell line); assay: In vitro colorimetric cell death assay (MTT); details: 48 hours
Description: as §1, §2

L 929 = assay: In vitro colorimetric cell death assay (MTT); details: Mus musculus, L929; L 929, MTT, 48 hours; read-out: IC 50
Description: as §1, §2

MDAMB231 [3] = assay: In vitro colorimetric cell death assay (MTT); details: Homo sapiens, MDA-MB-231, 48 hours
Description: as §1, §2

DU145 [4] = assay: In vitro colorimetric cell death assay (MTT); details: Homo sapiens, DU-145; DU145, MTT, 48 hours; read-out: IC 50
Description: as §1, §2

MCF-7 [5] = assay: In vitro soft agar colony forming growth assay; details: Homo sapiens, MCF7, 168 h; MCF-7, soft agar, one week
Description: (§3) The Soft Agar Assay for Colony Formation is considered the most stringent assay for detecting malignant transformation of cells. In this assay the cells are cultured in medium with low percentage of agar.
(§4) An exemplary procedure for the assay follows.

T47D = assay: In vitro soft agar colony forming growth assay; details: Homo sapiens, 168 h, one week
Description: as §3, §4

PC3 = assay: In vitro soft agar colony forming growth assay; details: Homo sapiens, PC-3, 168 h, one week
Description: as §3, §4

LNCaP = assay: In vitro soft agar colony forming growth assay; details: Homo sapiens, 168 h, one week
Description: as §3, §4

MDAMB231 [6] = assay: In vitro soft agar colony forming growth assay; details: Homo sapiens, MDA-MB-231, 168 h; MDAMB231, soft agar, one week; read-out: IC 50
Description: as §3, §4

DU145 [7] = assay: In vitro soft agar colony forming growth assay; details: Homo sapiens, DU-145, 168 h, one week
Description: as §3, §4

[8] = test system: breast cancer cells MDA MB 231; assay: In vitro 3D primary sphere forming stem cell assay
Description: (§5) This assay measures the ability of cancer stem cells to form spheres in a serum free media where the spheres are in a suspended form. Through this assay we evaluated the potency of the compounds of the invention to kill cancer stem cells in comparison with the known chemotherapeutic agent Cisplatin.
(§6) An exemplary procedure for the assay follows. Cells were grown in three dimensions on a plastic substrate, harvested in suspension in serum-free media, then the cells in the sample were trypsinized and a single cell suspension was formed by passing through a cell strainer. The cells were diluted according to the predetermined plating efficiency for the cell line being studied by suspending the cells in stem cell culture medium. 100 uL of this suspension was added into each well of a 96 well suspension plate, and the plate was incubated at 37 degrees Celsius in 5% CO2 atmosphere for 24 hours, then 2 uL of appropriate concentrations of the compounds of the invention and cisplatin were added into each respective well along with 100 uL of stem cell culture medium, and the plates were incubated at 37 degrees Celsius under 5% CO2 atmosphere for 72 hours. 2.5 uL of the compounds of the invention and cisplatin were added to each respective well along with 50 uL of stem cell culture medium and then the plates were incubated at 37 degrees Celsius under 5% CO2 atmosphere for 72 hours. 3 uL of appropriate concentrations of the compounds of the invention and cisplatin were added to each respective well along with 50 uL of stem cell culture medium and then the plates were incubated at 37 degrees Celsius under 5% CO2 atmosphere for 72 hours, then the spheres formed were observed under a microscope then counted and scored by size.
(§7) Results of the in vitro 3D sphere forming stem cell assay are set forth in a tabular manner. The number in each box is the total number of spheres formed in the presence of either cisplatin or compound I-2 or compound I-3 at each drug concentration. GC refers to a growth control performed in the absence of drug or solvent (DMSO). GCD refers to a growth control performed in the absence of drug, but in the presence of DMSO.

[9] = test system: prostate cancer cells LNCaP; assay: In vitro 3D primary sphere forming stem cell assay
Description: as §5, §6, §7

[10] = test system: prostate cancer cells PC3; assay: In vitro 3D primary sphere forming stem cell assay
Description: as §5, §6, §7

breast cancer cells T47D = assay: In vitro 3D primary sphere forming stem cell assay
Description: as §5, §6, §7

[11] = test system: prostate cancer cells DU145; assay: In vitro 3D primary sphere forming stem cell assay
Description: as §5, §6, §7

Compound: COc1cc2c(OC3OCC(OC)C(OC)C3O)c3c(c(-c4ccc5c(c4)OCO5)c2cc1OC)C(=O)OC3 (stereo not drawn) [I-2]
- anticancer activity in cancer cell lines as compared to cisplatin (cancer cell lines): high anticancer activity
- IC50 (MCF-7 [1]): 0.954 µM
- IC50 [2]: No Activity
- IC50 (L 929): 1.38 µM
- IC50 (MDAMB231 [3]): 0.331 µM
- IC50 (DU145 [4]): 2.45 µM
- IC50 (MCF-7 [5]): 0.62 µM
- IC50 (T47D): 2.39 µM
- IC50 (PC3): 0.26 µM
- IC50 (LNCaP): 0.7 µM
- IC50 (MDAMB231 [6]): 3.63 µM
- IC50 (DU145 [7]): 3.16 µM
- numbers of primary spheres formed, compared with cisplatin ([8]; MDA MB 231): significantly less
- # of 3D Primary Spheres Formed of Cells MDA MB231 (±SD) ([8]; final conc. 0.125 μM): 60(±9)
- # of 3D Primary Spheres Formed of Cells MDA MB231 (±SD) ([8]; final conc. 1.25 μM): 32(±5)
- # of 3D Primary Spheres Formed of Cells MDA MB231 (±SD) ([8]; final conc. 12.5 μM): 14(±2)
- # of 3D Primary Spheres Formed of Cells MDA MB231 (±SD) ([8]; final conc. 125 μM): 0(±0)
- # of 3D Primary Spheres Formed of Cells MDA MB231 (±SD) ([8]; final conc. 1250 μM): 0(±0)
- numbers of primary spheres formed, compared with cisplatin ([9]; LNCaP): significantly less
- # of 3D Primary Spheres Formed of Cells LNCaP (±SD) ([9]; final conc. 0.125 μM): 98(±17)
- # of 3D Primary Spheres Formed of Cells LNCaP (±SD) ([9]; final conc. 1.25 μM): 49(±6)
- # of 3D Primary Spheres Formed of Cells LNCaP (±SD) ([9]; final conc. 12.5 μM): 6(±2)
- # of 3D Primary Spheres Formed of Cells LNCaP (±SD) ([9]; final conc. 125 μM): 0(±0)
- # of 3D Primary Spheres Formed of Cells LNCaP (±SD) ([9]; final conc. 1250 μM): 0(±0)
- numbers of primary spheres formed, compared with cisplatin ([10]; PC3): significantly less
- # of 3D Primary Spheres Formed of Cells PC3 (±SD) ([10]; final conc. 0.125 μM): 81(±9)
- # of 3D Primary Spheres Formed of Cells PC3 (±SD) ([10]; final conc. 1.25 μM): 69(±3)
- # of 3D Primary Spheres Formed of Cells PC3 (±SD) ([10]; final conc. 12.5 μM): 63(±8)
- # of 3D Primary Spheres Formed of Cells PC3 (±SD) ([10]; final conc. 125 μM): 31(±6)
- # of 3D Primary Spheres Formed of Cells PC3 (±SD) ([10]; final conc. 1250 μM): 0(±0)
- numbers of primary spheres formed, compared with cisplatin (breast cancer cells T47D; T47D): significantly less
- # of 3D Primary Spheres Formed of Cells T47D (±SD) (breast cancer cells T47D; final conc. 0.125 μM): 84(±8)
- # of 3D Primary Spheres Formed of Cells T47D (±SD) (breast cancer cells T47D; final conc. 1.25 μM): 34(±5)
- # of 3D Primary Spheres Formed of Cells T47D (±SD) (breast cancer cells T47D; final conc. 12.5 μM): 28(±7)
- # of 3D Primary Spheres Formed of Cells T47D (±SD) (breast cancer cells T47D; final conc. 125 μM): 14(±4)
- # of 3D Primary Spheres Formed of Cells T47D (±SD) (breast cancer cells T47D; final conc. 1250 μM): 0(±0)
- numbers of primary spheres formed, compared with cisplatin ([11]; DU145): significantly less
- # of 3D Primary Spheres Formed of Cells DU145 (±SD) ([11]; final conc. 0.125 μM): 53(±5)
- # of 3D Primary Spheres Formed of Cells DU145 (±SD) ([11]; final conc. 1.25 μM): 41(±4)
- # of 3D Primary Spheres Formed of Cells DU145 (±SD) ([11]; final conc. 12.5 μM): 18(±7)
- # of 3D Primary Spheres Formed of Cells DU145 (±SD) ([11]; final conc. 125 μM): 7(±1)
- # of 3D Primary Spheres Formed of Cells DU145 (±SD) ([11]; final conc. 1250 μM): 0(±0)
